# Experiments:
# [1] = test system: hepatic glucose output (HGO); assay: Kinetics of deactivation of effect on hepatic glucose output (HGO); assay type: in vivo, human
# Text: (§1) At this point, the hormone infusion was abruptly stopped, and the glucose concentration was maintained constant until the biologic effects of the infused hormone were no longer detectable.
# [2] = test system: insulin-degrading proteases; conditions: subcutaneous injection site
# HGO = test system: HGO
# Text: For example, in non-insulin dependent diabetes mellitus (NIDDM), one of the major metabolic abnormalities that maintains the resultant hyperglycemic state is accelerated hepatic glucose production.
# [3] = Euglycemic glucose-clamp: steady state serum hormone levels; assay type: in vivo, human
# Procedure: J. Physiol. 237:E214-E223 (1979). With this technique, an antecuubital vein is cannulated in an antegrade manner to administer the infusates. A dorsal hand vein is cannulated in a retrograde fashion and kept in a warming device (70° C.) to facilitate venous sampling and provide arterialized venous blood After insertion of the catheters, [3-3H]-glucose is infused for at least 30 minutes before initiating the hormone infusion. At the onset of hormone infusion, a priming dose of either insulin or proinsulin is administered during the initial 10 minutes in a logarithmically decreasing manner to acutely raise the serum hormone level. The amount of insulin or proinsulin given during this initial 10 minute period is roughly twice that given during each subsequent 10 minute interval by a continuous hormone infusion The serum glucose is maintained between 80 and 90 mg/dl throughout the study period with a coefficient of variation of less than 5% by means of a variable rate of infusion of 20% dextrose. The overall glucose disposal rate is assessed isotopically for each 20 minute interval of the study.
# Each subject underwent a total of 8 euglycemic glucose clamp studies, each performed on a separate day. Insulin infusion rates of 15, 40, 120, and 240 mU/M2/min were utilized to construct a dose response curve for insulin action. With this approach an attempt was made to achieve steady state insulin concentrations of 40 to 800 μU/ml (Table 1). Each subject was also studied with four different proinsulin infusions. […] Hepatic glucose output was quantitated in the basal state and during each clamp study using a primed continuous infusion of [3-3H]glucose. […] The dose response relationship for insulin and proinsulin mediated suppression of hepatic glucose output was determined by calculating the percent suppression of basal hepatic glucose output at each steady state hormone concentration obtained during the euglycemic clamp studies.
# [4] = five Type II subjects, 0.2 U/kg s.c.
# [5] = test system: hepatic glucose production; assay: Subcutaneous administration to Type II diabetic subjects: hepatic glucose production; assay type: in vivo, human; conditions: 0.2 U/kg s.c.
# [6] = test system: peripheral glucose uptake; assay: Kinetics of activation and deactivation of effect on peripheral glucose uptake; assay type: in vivo, human
# Text: Marked differences between the two hormones were noted when biologic activity was studied.
# as §1
# [7] = test system: fasting Type II diabetic patients; assay: Subcutaneous administration to fasting Type II diabetic patients: plasma glucose; assay type: in vivo, human; conditions: for Plasma Glucose, Mean: mean total dose 18.7 I.U. (0.2 U/kg s.c.); for Plasma Glucose: subject four, total dose 16.3 I.U. (0.2 U/kg s.c.)
# [8] = after stopping 5 hour infusion (human insulin 0.55, human proinsulin 2.75 μg/M2/min)
substance,measurement,setting,value
"human proinsulin: human proinsulin, available by organic synthesis, isolation from human pancreas or recombinant DNA methodology",Time until a decline in effect to suppress HGO could be detected,[1]; after infusion stopped,120 min
same,"Time until HGO returned to baseline values, extrapolation of the curve",[1]; after stopping 5 hour infusion,> 6 h
same,t 1/2 of deactivation of effect to inhibit HGO,[1]; [8],3.83 ± 0.317 h
same,Degradation by insulin-degrading proteases,[2],not degraded
same,Expected suppression of HGO in NIDDM subjects,HGO; circulating concentration approximately 1.5-2 pmol/ml,approximately 50%
same,Expected duration of adequate glycemic control,HGO; sustained level 1.5-2 pmol/ml for about 3 hours by CSII or single s.c. injection,8 to 10 h
same,Steady State Hormone Levels (Mean ± SEM),"[3]; infusion A: insulin 0.63, proinsulin 2.75 μg/M^2/min",2.55 ± 0.16 pmol/mL
same,Steady State Hormone Levels (Mean ± SEM),"[3]; infusion B: insulin 1.67, proinsulin 7.5 μg/M^2/min",6.24 ± 0.49 pmol/mL
same,Steady State Hormone Levels (Mean ± SEM),"[3]; infusion C: insulin 5.0, proinsulin 22.5 μg/M^2/min",21.2 ± 1.4 pmol/mL
same,Steady State Hormone Levels (Mean ± SEM),"[3]; infusion D: insulin 10.0, proinsulin 45.0 μg/M^2/min",40.0 ± 1.9 pmol/mL
same,Mean peak hormone blood level,[4],6.8 pmol/mL
same,Time of mean peak hormone blood level,[4],230 ± 33 min
same,Effect on elevated hepatic glucose production,[5],suppressed into the normal range
same,Time of maximum suppression of hepatic glucose production,[5],264 ± 31 min
same,Minimum hepatic glucose production,[5]; basal 3.83±0.6,1.21 ± 0.2 mg/kg/min
same,"Decay of biologic effect to stimulate glucose disposal, more slowly than human insulin",[6]; after stopping 5 hour infusion,2.2 times
same,t 1/2 of deactivation of effects on glucose disposal,[6]; [8],1.45 ± 0.233 h
same,Time needed to reach steady state biologic effects compared to human insulin,[6]; both stimulation of glucose disposal and inhibition of HGO,much slower
same,Time to steady state effect to stimulate glucose disposal,[6]; continuous infusion,5 h
same,Time until glucose disposal rates returned to basal,[6]; following cessation of 2.75 μg/M2/min infusion,160 min
same,Blood glucose level of each subject,"[7]; 0.2 U/kg s.c., normal range about 80-110 mg/dl",lowered to a normal range
same,Hypoglycemia among subjects,"[7]; five Type II subjects, 0.2 U/kg s.c., insulin: by approximately 300 minutes",hypoglycemia nowhere evidenced
same,"Plasma Glucose, Mean","[7]; mean of subjects with values, 360 min after injection",102 mg/dL
same,"Plasma Glucose, Mean","[7]; mean of subjects with values, 400 min after injection",95 mg/dL
same,"Plasma Glucose, Mean","[7]; mean of subjects with values, 440 min after injection",92 mg/dL
same,"Plasma Glucose, Mean","[7]; mean of subjects with values, 480 min after injection",96 mg/dL
same,"Plasma Glucose, Mean","[7]; mean of subjects, 0 min after injection",245 mg/dL
same,"Plasma Glucose, Mean","[7]; mean of subjects, 40 min after injection",235 mg/dL
same,"Plasma Glucose, Mean","[7]; mean of subjects, 80 min after injection",221 mg/dL
same,"Plasma Glucose, Mean","[7]; mean of subjects, 120 min after injection",205 mg/dL
same,"Plasma Glucose, Mean","[7]; mean of subjects, 160 min after injection",188 mg/dL
same,"Plasma Glucose, Mean","[7]; mean of subjects, 280 min after injection",129 mg/dL
same,"Plasma Glucose, Mean","[7]; mean of subjects, 300 min after injection",113 mg/dL
same,Plasma Glucose,[7]; 0 min after injection,290 mg/dL
same,Plasma Glucose,[7]; 40 min after injection,282 mg/dL
same,Plasma Glucose,[7]; 80 min after injection,272 mg/dL
same,Plasma Glucose,[7]; 120 min after injection,250 mg/dL
same,Plasma Glucose,[7]; 160 min after injection,230 mg/dL
same,Plasma Glucose,[7]; 200 min after injection,200 mg/dL
same,Plasma Glucose,[7]; 240 min after injection,183 mg/dL
same,Plasma Glucose,[7]; 280 min after injection,152 mg/dL
same,Plasma Glucose,[7]; 300 min after injection,127 mg/dL
same,Plasma Glucose,[7]; 360 min after injection,101 mg/dL
same,Plasma Glucose,[7]; 400 min after injection,82 mg/dL
same,Plasma Glucose,[7]; 440 min after injection,77 mg/dL

# From patent publication US4652548A (Eli Lilly and Company, priority 1984, dated 1987)
